# Legend:
# HSTS26T tumors [1] = experiment: IgG diffusion by fluorescence recovery after photobleaching (FRAP); format: in vivo, SCID mice
# Description: FIG. 9 is a bar graph showing the changes in diffusion coefficient in HSTS26T tumors after losartan treatment. The diffusion coefficient of IgG was measured in HSTS26T tumors implanted in the dorsal window chamber of SCID mice. Treated animals received (40 mg/kg/day) losartan by i.p. injection while control animals received saline.
# Based on the previous studies on the tumor interstitial matrix (Pluen A, et al. (2001) Proc Natl Acad Sci USA 98:4628-4633 and Brown E, et al. (2003) Nat Med 9:796-800), the inventors then sought to determine if a decrease in collagen content by Losartan can improve the intratumoral distribution of nanoparticles. The inventors therefore measured the intratumoral distribution of fluorescent polystyrene nanoparticles (100 nm diameter) in three different tumor types—HSTS26T, Mu89, and L3.6 pl—after an i.t. or i.v. injection. […] The inventors also determined the effects of losartan on the intratumoral distribution of oncolytic HSV.
# Mice with HSTS26T tumors implanted in a dorsal skin fold chamber were treated with i.p. injections of losartan (40 mg/kg/day) for 1 week. Fluorescence recovery after photobleaching (FRAP) measurements were done with a custom built multiphoton microscope based on a previously described protocol (Chauhan V P, et al. (2009) Biophys J 97:330-336). […] Matrix pore sizes were calculated using the SFA-FRAP data, using the equation […]
# HSTS26T tumors [2] = experiment: Virus treatment and tumor growth delay; format: in vivo, SCID mice
# Description: (§1) Each arm (control and treated) was subsequently divided into HSV treated and non-HSV treated groups. Tumors that had reached 60 mm^3 after two weeks were selected for i.t. HSV injections. Tumors were treated with 10 μl i.t. injections of either PBS or 2.5×10^5 transducing units (t.u.) of oncolytic HSV MGH2 (gift from E. Antonio Chiocca, Ohio State University, Columbus, Ohio). Two i.t. injections of oncolytic HSV separated by 24 hrs were administered. The injections were done with a Harvard Apparatus Standard Pump 22 infusion/withdraw syringe pump system (Holliston, Mass.) at a flow rate of 4 μl/min. Tumors were measured every 2 to 3 days. Tumor volume was estimated as: V=AB^2/2, where V is the tumor volume; A and B are the maximum and minimum diameters of the tumor as measured with calipers.
# Mu89 tumors = experiment: Virus treatment and tumor growth delay; format: in vivo, SCID mice
# Description: as §1
# [3] = system: L3.6PL orthotopic pancreatic tumors; experiment: DOXIL treatment and tumor growth delay; format: in vivo, SCID mice
# Source text: One week after the DOXIL injection, the tumors were resected and measured.
# E0771 breast tumors = experiment: Vessel perfusion histology (lectin / CD31); format: in vivo, SCID mouse; conditions: 40 mg/kg
# 4T1 breast tumors = experiment: Solid stress (tumor opening technique); parameters: species or system mice; conditions: mouse, in vivo
# Source text: FIG. 25 is a bar graph showing that angiotensin inhibitors decrease stress in multiple tumor models. Solid stress levels in tumors after angiotensin inhibition using losartan are shown. […] Animal numbers n=10-11 (4T1 stress), n=4-8 (Pan-02 stress).
# The mechanism responsible for the increase in tumor vessel perfusion by losartan was investigated. Desmoplasia, high stromal cell and matrix density, is a major contributor to the solid stress accumulation that compresses vessels (Stylianopoulos T, et al., Growth-induced mechanical stress in murine and human tumors: causes, consequences and remedies. under review. 2012). […] Moreover, losartan decreased collagen I concentration, measured based on staining intensity, in E0771 and AK4.4 tumors (FIGS. 24B-24C). […] Next, solid stress in these tumors was measured using recently established technique described in Stylianopoulos T, et al., Growth-induced mechanical stress in murine and human tumors: causes, consequences and remedies. under review. […]
# Solid stress: Solid stress was measured using the tumor opening technique as described previously (Stylianopoulos T, et al., Growth-induced mechanical stress in murine and human tumors: causes, consequences and remedies. under review. 2012). […] Subsequently, each tumor was excised, washed with Hanks' Balanced Salt Solution (HBSS) and its three dimensions were measured. […]
# [4] = Mean arterial blood pressure (MABP) in mice
# Description: In the following Examples, 20 mg/kg/day dose was used (but it by no means limits the use of other doses in the methods described herein).
# [5] = system: carcinoma associated fibroblasts (CAFs); conditions: losartan 10 μmol/L, 24 hrs
# Description: Protein assays were done with commercial ELISA kits.
# CAFs were plated in 24 well plates at a concentration of 500K cells/well. […] Treatment was done in low serum to reduce background collagen levels. Conditioned medium was collected at the end of the 24-hr treatment period and analyzed for collagen levels.
# Collagen I measurements were done with a type I C-terminal collagen propetide Enzyme Linked Immunosorbent Assay (ELISA) kit (Quidel, San Diego, Calif.) and the Sircol soluble collagen assay (Biocolor Ltd., United Kingdom). TGF-β1 assays were performed with a human TGF-β1 ELISA kit (R&D Systems, Minneapolis, Minn.). The assay only measures the free-form of mature TGF-β1. To measure total levels of TGF-β1 the latent form of TGF-β1 was activated with 1N HCl.
# [6] = losartan two weeks before i.t. injection of HSV
compound,measurement,setting,value
CCCCc1nc(Cl)c(CO)n1Cc1ccc(-c2ccccc2-c2nn[nH]n2)cc1 [losartan],diffusion coefficient of IgG,"HSTS26T tumors [1]; 40 mg/kg/day i.p., multiphoton FRAP",significant increase
same,mean interstitial matrix pore radius,"HSTS26T tumors [1]; calculated from IgG diffusion data, control 9.91±0.43 nm",11.78±0.41 nm
same,tumor growth rate,HSTS26T tumors [2]; losartan alone,did not affect
same,mice whose tumor volume remained stable for up to 9 weeks,HSTS26T tumors [2]; losartan and HSV,50%
same,tumor growth,HSTS26T tumors [2]; [6],significantly delayed the growth
same,tumor growth rate,Mu89 tumors; losartan alone,did not affect
same,tumor size relative to the starting treatment size,"Mu89 tumors; losartan and HSV, 4 weeks after the virus injection, all tumors",3 fold
same,tumor growth,Mu89 tumors; [6],significantly delayed the growth
same,mean tumor weight,"[3]; agent alone (losartan 20 mg/kg/day or DOXIL 4 mg/kg i.v.), after 7 days",did not affect
same,tumor size vs DOXIL alone,[3]; losartan 20 mg/kg/day combined with DOXIL 4 mg/kg i.v.,significantly smaller
same,growth of pancreatic tumors or weight of treated mice,[3]; losartan alone,did not affect
same,reduction of tumor sizes compared to DOXIL treatment alone,[3]; losartan combined with DOXIL,50%
same,CD31+ vessel density,E0771 breast tumors,did not affect
same,vessel diameters,E0771 breast tumors,increased
same,solid stress,4T1 breast tumors,reduces solid stress
same,reduction in mean arterial blood pressure (MABP),"[4]; 20 mg/kg/day, after 2 weeks",10 mm Hg
same,reduction in mean arterial blood pressure (MABP),[4]; 60 mg/kg/day,35 mm Hg
same,decrease in collagen I levels,[5],27%
same,reduction of active-TGF-β1 levels,[5],90%
same,total TGF-β1 levels,[5],unaffected
